Test results from the NIST ThermoML archive (doi:10.1021/acs.jced.5b01007).

Settings: Fluid (supercritical or subcritical phases), Frequency=8 MHz, Pulse-echo method

O=O [oxygen]
Settings	speed of sound [m/s]
299.96 K, 14860 kPa	352.65
299.97 K, 9920 kPa	340.22
299.97 K, 20050 kPa	370.99
299.97 K, 25030 kPa	392.82
299.97 K, 29960 kPa	417.33
299.97 K, 34960 kPa	443.87
299.97 K, 39960 kPa	471.2
299.97 K, 45030 kPa	498.92
299.97 K, 50010 kPa	525.82
299.97 K, 55140 kPa	552.86
299.97 K, 60160 kPa	578.47
299.97 K, 64960 kPa	602.28
299.97 K, 69690 kPa	624.95
300 K, 74030 kPa	645.07
349.98 K, 8030 kPa	367.01
349.98 K, 29990 kPa	433.29
349.98 K, 49900 kPa	518.73
349.98 K, 78850 kPa	641.85
349.99 K, 10070 kPa	370.9
349.99 K, 14980 kPa	382.53
349.99 K, 19640 kPa	396.03
349.99 K, 24980 kPa	414.2
349.99 K, 35080 kPa	454.09
349.99 K, 45020 kPa	497.15
349.99 K, 55110 kPa	541.66
349.99 K, 59910 kPa	562.59
349.99 K, 68690 kPa	600.07
350.03 K, 40050 kPa	475.39
350.03 K, 64930 kPa	584.11
399.05 K, 83180 kPa	648.15
399.06 K, 19900 kPa	421.58
399.07 K, 74590 kPa	617.2
399.07 K, 79990 kPa	636.78
399.08 K, 34890 kPa	469.6
399.08 K, 39970 kPa	487.82
399.08 K, 44980 kPa	506.29
399.08 K, 54970 kPa	543.88
399.08 K, 60070 kPa	563.14
399.08 K, 64900 kPa	581.28
399.08 K, 70100 kPa	600.65
399.09 K, 4960 kPa	388.03
399.09 K, 6020 kPa	389.77
399.09 K, 7950 kPa	393.26
399.09 K, 25010 kPa	436.72
399.09 K, 29900 kPa	452.47
399.09 K, 50090 kPa	525.43
399.1 K, 15010 kPa	408.72
399.11 K, 9980 kPa	397.34
449.79 K, 87520 kPa	660.32
449.87 K, 80010 kPa	636.12
449.88 K, 75270 kPa	620.61
449.88 K, 85020 kPa	652.33
449.89 K, 65180 kPa	587.16
449.89 K, 70120 kPa	603.58
449.9 K, 55090 kPa	553.54
449.9 K, 60070 kPa	570.12
449.93 K, 35030 kPa	488.6
449.93 K, 40050 kPa	504.35
449.94 K, 6010 kPa	414.33
449.94 K, 9970 kPa	422.01
449.94 K, 15000 kPa	433.26
449.94 K, 20010 kPa	445.6
449.94 K, 24940 kPa	458.85
449.94 K, 30000 kPa	473.4
449.94 K, 45090 kPa	520.58
449.94 K, 49910 kPa	536.52
449.95 K, 8010 kPa	418.16
449.95 K, 88050 kPa	662.01
498.83 K, 69940 kPa	610.55
498.89 K, 60010 kPa	580.54
498.89 K, 65000 kPa	595.63
498.9 K, 95000 kPa	684.96
498.91 K, 74960 kPa	625.69
498.91 K, 90000 kPa	670.28
498.91 K, 100060 kPa	699.53
498.92 K, 79990 kPa	640.74
498.93 K, 84890 kPa	655.27
498.94 K, 10000 kPa	444.64
498.99 K, 40010 kPa	521.13
499 K, 29910 kPa	492.81
499 K, 34730 kPa	506.11
499 K, 44900 kPa	535.41
499.01 K, 24900 kPa	479.52
499.02 K, 14940 kPa	455.31
499.03 K, 4920 kPa	434.71
499.03 K, 5910 kPa	436.52
499.03 K, 7820 kPa	440.23
499.03 K, 49930 kPa	550.29
499.03 K, 54810 kPa	564.89
499.04 K, 20070 kPa	467.39
